Data on five compounds can be found in ChEMBL document CHEMBL1142930, “Cyathane diterpenes from Sarcodon cyrneus and evaluation of their activities of neuritegenesis and nerve growth factor production” (2007).

The source made the active and inactive calls. No cut-off for these calls is given here.

Assay [1] in a line: Induction of NGF gene expression in human 1321N1 cells at 200 uM relative to control. The format is functional.
The subject of assay [2] is PC-12. Nature of the assay: Stimulation of neurite outgrowth in rat PC12 cells assessed as morphological change at 200 uM after 24 hrs. It is filed as functional, cell-based.

On to `CC(C)C1=CC(=O)[C@]2(C)CC[C@]3(C)C(=CC=C(C=O)C[C@@H]3O)[C@H]12` [GLAUCOPINE C], for which the Fold change in assay [1] came out at 3.5. Moreover, the result in assay [2] was inactive.

For the compound `CC(C)C1=CC(=O)[C@]2(C)CC[C@@]3(C)C(=O)CC(C=O)=CC[C@@H]3[C@H]12` [CYRNEINE C], the Fold change in assay [1] was determined as 2.7. Also, in assay [2], the outcome was inactive.

Consider `CC(C)C1=C2C3=CC=C(C=O)C[C@H](O)[C@]3(C)CC[C@@]2(C)[C@H](O)C1` [CYRNEINE A], for which, in assay [1], the Fold change stood at 3.8.

In assay [1], `CC(C)C1=CC(=O)[C@]2(C)CC[C@]3(C)C(=CC=C(C=O)C[C@@H]3O)[C@]12O` [CYRNEINE B] registered a Fold change of 7.3.

`CC(C)C1=CC(=O)[C@]2(C)CC[C@@]3(C)C(=O)CC(C=O)=CC[C@@H]3[C@]12O` [CYRNEINE D] registered a Fold change in assay [1] of 1.3. In addition, the outcome in assay [2] was inactive.
